This is an account of results in publication PMC9820814, “In Vitro Reconstitution of the Melanin Pathway’s Catalytic Activities Using Tyrosinase Nanoparticles” (International Journal of Molecular Sciences, 2022).

One experiment has as its target T1, TYRP1 (Homo sapiens, UniProt P17643).
T1 construct: recombinant truncated intra-melanosomal domain, C-terminal part with transmembrane helix removed, purified on His-Trap; baculovirus / T. ni larvae; ~59 kDa
Put plainly: DHICA oxidation, IQCA absorbance at […] nm. It counts as biochemical. To be noted: 1.5 mM DHICA; pH 7.4; 37 °C; 24 h; no MBTH.

The target of the next experiment is T2, TYR (Homo sapiens, UniProt P14679).
T2 construct: recombinant truncated intra-melanosomal domain, C-terminal part with transmembrane helix removed, His-tagged; baculovirus / T. ni larvae
T2 sequence (P14679 19-469 limits assumed): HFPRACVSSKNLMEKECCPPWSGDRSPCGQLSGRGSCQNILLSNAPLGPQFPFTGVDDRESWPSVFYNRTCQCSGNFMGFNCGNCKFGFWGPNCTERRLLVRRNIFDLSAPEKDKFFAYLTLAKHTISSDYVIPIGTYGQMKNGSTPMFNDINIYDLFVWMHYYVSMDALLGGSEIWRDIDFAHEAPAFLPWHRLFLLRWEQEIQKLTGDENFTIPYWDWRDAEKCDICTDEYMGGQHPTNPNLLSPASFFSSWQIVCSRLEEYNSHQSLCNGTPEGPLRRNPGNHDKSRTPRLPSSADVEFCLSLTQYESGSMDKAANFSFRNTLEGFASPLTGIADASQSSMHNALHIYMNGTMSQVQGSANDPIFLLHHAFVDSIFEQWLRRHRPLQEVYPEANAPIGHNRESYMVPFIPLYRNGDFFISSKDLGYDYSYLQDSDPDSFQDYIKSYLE
Nature of the experiment: diphenol oxidase activity, dopachrome absorbance at […] nm, Michaelis-Menten fit. As to conditions: free enzyme; 10 min incubation; 10 mM NaPO4 pH 7.4; 37 °C; unit printed mM^−1 (sic, mM meant). In kind it is biochemical.

T1 sequence (P17643 25-477 limits assumed): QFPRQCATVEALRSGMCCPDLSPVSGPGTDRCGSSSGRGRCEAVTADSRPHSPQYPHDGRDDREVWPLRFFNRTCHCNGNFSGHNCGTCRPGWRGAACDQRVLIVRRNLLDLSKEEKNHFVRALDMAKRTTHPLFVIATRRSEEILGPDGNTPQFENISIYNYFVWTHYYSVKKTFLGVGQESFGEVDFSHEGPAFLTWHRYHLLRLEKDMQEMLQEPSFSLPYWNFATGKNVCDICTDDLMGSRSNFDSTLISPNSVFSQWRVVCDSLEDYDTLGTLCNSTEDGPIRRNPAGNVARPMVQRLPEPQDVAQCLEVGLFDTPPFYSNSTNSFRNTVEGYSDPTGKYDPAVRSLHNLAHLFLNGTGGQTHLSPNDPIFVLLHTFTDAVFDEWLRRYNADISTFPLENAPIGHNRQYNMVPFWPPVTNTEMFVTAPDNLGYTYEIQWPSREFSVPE

Turning to `O=C(O)c1cc2cc(O)c(O)cc2[nH]1` [DHICA], the “DHICA oxidation, IQCA absorbance at 560 nm” value at TYRP1 is recorded as “the spectrum of the reaction shows the formation of a peak corresponding to a new product”.

As to `N[C@@H](Cc1ccc(O)c(O)c1)C(=O)O` [L-DOPA], the “Km (mM^-1) / Tyr” value at TYR turned out to be 0.241 ± 0.069 mM⁻¹.
